According to ChEMBL document CHEMBL5385856, “Novel 1,4,5,6-tetrahydrocyclopenta[d]imidazole-5-carboxamide-based JNK3 inhibitors: Design, synthesis, molecular docking, and therapeutic potential in neurodegenerative diseases” (Eur J Med Chem, 2023):
Active and inactive are the calls of the source. The calls are words filed in the database; no cut-off is given here.

Columns and labels:
[1] = target: T1, Mitogen-activated protein kinase 10 (Homo sapiens, UniProt P53779); assay: Inhibition of JNK3 (unknown origin) using ATF2 as substrate incubated for 40 mins in presence of [gamma33P]ATP by scintillation counting analysis
T1 sequence (P53779 whole entry): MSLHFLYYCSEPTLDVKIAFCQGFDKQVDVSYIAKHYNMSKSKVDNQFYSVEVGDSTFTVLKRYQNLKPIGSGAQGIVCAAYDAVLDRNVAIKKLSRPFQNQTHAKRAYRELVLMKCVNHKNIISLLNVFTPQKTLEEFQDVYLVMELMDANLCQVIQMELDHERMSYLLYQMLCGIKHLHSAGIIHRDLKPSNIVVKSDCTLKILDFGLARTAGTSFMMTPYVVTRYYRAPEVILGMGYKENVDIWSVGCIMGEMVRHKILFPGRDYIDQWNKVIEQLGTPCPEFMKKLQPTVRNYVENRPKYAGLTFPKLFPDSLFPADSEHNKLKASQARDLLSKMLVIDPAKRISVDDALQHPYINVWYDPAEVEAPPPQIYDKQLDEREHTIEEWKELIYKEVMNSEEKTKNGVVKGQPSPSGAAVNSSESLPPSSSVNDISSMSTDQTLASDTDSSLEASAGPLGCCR

[2] = target: T2, Mitogen-activated protein kinase 8 (Homo sapiens, UniProt P45983); assay: Inhibition of JNK1 (unknown origin) at 1 uM relative to control
T2 sequence (P45983 whole entry): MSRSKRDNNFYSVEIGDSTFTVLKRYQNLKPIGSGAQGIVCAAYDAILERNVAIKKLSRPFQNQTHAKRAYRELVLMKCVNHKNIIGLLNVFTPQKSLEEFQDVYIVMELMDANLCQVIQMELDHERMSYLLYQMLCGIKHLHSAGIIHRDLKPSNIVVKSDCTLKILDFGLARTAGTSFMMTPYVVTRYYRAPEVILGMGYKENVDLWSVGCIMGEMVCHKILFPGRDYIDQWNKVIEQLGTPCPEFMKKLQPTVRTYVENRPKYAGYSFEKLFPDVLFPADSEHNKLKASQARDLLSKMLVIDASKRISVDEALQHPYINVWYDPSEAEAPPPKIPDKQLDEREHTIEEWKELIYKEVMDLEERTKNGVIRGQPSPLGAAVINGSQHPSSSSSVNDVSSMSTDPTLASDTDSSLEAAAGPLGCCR

[3] = target: Glycogen synthase kinase-3 beta (Homo sapiens, UniProt P49841); assay: Inhibition of GSK3beta (unknown origin) incubated for 20 mins in presence of 33P-ATP
Glycogen synthase kinase-3 beta, sequence (P49841 whole entry): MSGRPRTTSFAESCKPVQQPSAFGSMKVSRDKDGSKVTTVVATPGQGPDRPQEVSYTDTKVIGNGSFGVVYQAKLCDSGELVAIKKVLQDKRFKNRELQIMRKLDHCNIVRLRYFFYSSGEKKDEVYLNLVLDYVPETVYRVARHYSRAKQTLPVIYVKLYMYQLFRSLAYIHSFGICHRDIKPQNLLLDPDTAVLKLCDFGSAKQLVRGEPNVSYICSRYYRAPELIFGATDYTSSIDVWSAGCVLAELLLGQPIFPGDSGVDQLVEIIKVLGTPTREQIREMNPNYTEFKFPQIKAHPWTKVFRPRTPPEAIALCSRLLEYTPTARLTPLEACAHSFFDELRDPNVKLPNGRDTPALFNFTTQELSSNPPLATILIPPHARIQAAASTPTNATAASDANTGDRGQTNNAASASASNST

[4] = target: T1, Mitogen-activated protein kinase 10; assay: Inhibition of JNK3 (unknown origin) at 1 uM relative to control
Cortical neurone = assay: cells; settings: Rattus norvegicus, 120 h, read-out: Activity
[5] = target: T3, Mitogen-activated protein kinase 14 (Homo sapiens, UniProt Q16539); assay: Inhibition of p38alpha (unknown origin) incubated for 20 mins in presence of 33P-ATP
T3 sequence (Q16539 whole entry): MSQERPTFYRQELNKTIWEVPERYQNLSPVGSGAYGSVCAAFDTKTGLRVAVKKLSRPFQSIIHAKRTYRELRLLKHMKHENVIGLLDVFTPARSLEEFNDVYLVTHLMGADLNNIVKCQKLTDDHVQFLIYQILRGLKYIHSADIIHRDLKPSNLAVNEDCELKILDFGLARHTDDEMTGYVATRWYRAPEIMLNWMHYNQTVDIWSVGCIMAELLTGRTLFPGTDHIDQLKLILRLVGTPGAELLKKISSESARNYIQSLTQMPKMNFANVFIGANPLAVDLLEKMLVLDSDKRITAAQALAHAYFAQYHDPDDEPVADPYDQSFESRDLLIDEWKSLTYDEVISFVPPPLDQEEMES

[6] = target: Mitogen-activated protein kinase 10 (Rattus norvegicus) (UniProt P49187); assay: Inhibition of JNK3 in primary rat cortex neuron cells assessed as reduction in Abeta1-42 induced c-Jun phosphorylation by Western blotting analysis; type: cell-based; settings: Primary cortical neuron
Mitogen-activated protein kinase 10 (Rattus norvegicus), sequence (P49187 whole entry): as the sequence (P53779 whole entry) above, with Q27H, Y32S, I33V, A34V counted along it

[7] = target: Mitogen-activated protein kinase 10 (Rattus norvegicus) (UniProt P49187); assay: Inhibition of JNK3 in primary rat cortex neuron cells assessed as reduction in Abeta1-42 induced APP phosphorylation by Western blotting analysis; type: cell-based; settings: Primary cortical neuron
[8] = target: T4, Mitogen-activated protein kinase 9 (Homo sapiens, UniProt P45984); assay: Inhibition of JNK2 (unknown origin) at 1 uM relative to control
Target sequence in this assay (P45984 whole entry, looked up): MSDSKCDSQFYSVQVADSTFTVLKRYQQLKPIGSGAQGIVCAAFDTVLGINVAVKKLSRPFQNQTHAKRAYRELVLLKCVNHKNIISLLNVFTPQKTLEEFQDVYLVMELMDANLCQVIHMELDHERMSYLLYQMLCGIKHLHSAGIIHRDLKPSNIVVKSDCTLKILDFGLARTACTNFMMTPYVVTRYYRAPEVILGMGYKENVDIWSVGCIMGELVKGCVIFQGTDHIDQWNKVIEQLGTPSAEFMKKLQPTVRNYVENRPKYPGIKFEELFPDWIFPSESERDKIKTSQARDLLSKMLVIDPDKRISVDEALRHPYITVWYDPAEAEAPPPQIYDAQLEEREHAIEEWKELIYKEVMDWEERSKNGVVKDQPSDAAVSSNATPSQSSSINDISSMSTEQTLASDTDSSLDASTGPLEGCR

[9] = target: T2, Mitogen-activated protein kinase 8; assay: Inhibition of JNK1 (unknown origin) incubated for 20 mins in presence of 33P-ATP
[10] = target: T3, Mitogen-activated protein kinase 14; assay: Inhibition of p38alpha (unknown origin) at 1 uM relative to control
[11] = target: T4, Mitogen-activated protein kinase 9; assay: Inhibition of JNK2 (unknown origin) incubated for 20 mins in presence of 33P-ATP
Target sequence in this assay (P45984 whole entry): as the sequence (P45984 whole entry, looked up) above

[12] = Selectivity ratio of IC50 for inhibition of GSK3beta (unknown origin) to IC50 for inhibition of JNK3 (unknown origin)
[13] = Selectivity ratio of IC50 for inhibition of JNK1 (unknown origin) to IC50 for inhibition of JNK3 (unknown origin)
[14] = Selectivity ratio of IC50 for inhibition of p38alpha (unknown origin) to IC50 for inhibition of JNK3 (unknown origin)

Question: For NC(=O)C1Cc2nc(-c3ccc(F)c(C(F)(F)F)c3)n(-c3ccnc(N[C@@H]4CCCN(C(=O)C5CC5)C4)n3)c2C1 (stereo partly specified), which IC50 [1] is on record?
Answer: Its IC50 is 104 nM.

Question: For NC(=O)C1Cc2nc(-c3ccc4ccccc4c3)n(-c3ccnc(N[C@@H]4CCCN(C(=O)C5CC5)C4)n3)c2C1 (stereo partly specified), which IC50 [1] is on record?
Answer: Its IC50 is 1.72 nM.

Question: Which IC50 [1] does the source give for NC(=O)C1Cc2nc(-c3ccc4c(c3)CCO4)n(-c3ccnc(N[C@H]4CCN(C(=O)C5CC5)C4)n3)c2C1 (stereo partly specified) here?
Answer: Its IC50 is 87.3 nM.

Question: Which IC50 [1] does the source give for NC(=O)C1Cc2nc(-c3ccc(Cl)c(Cl)c3)n(-c3ccnc(N[C@H]4CCCN(C(=O)C5CC5)C4)n3)c2C1 (stereo partly specified) here?
Answer: Its IC50 is 0.379 nM.

Question: And the inhibition [2]?
Answer: Its inhibition is 80%.

Question: And the IC50 [3]?
Answer: Its IC50 is 3890 nM.

Question: What about the inhibition [4] of the same compound?
Answer: Its inhibition is 100%.

Question: And the viability at 10 µM (Cortical neurone)?
Answer: The viability at 10 µM was 62.9%.

Question: What about the IC50 [5] of the same compound?
Answer: Its IC50 is 216 nM.

Question: And the inhibition [6]?
Answer: Its inhibition is “Active”.

Question: And the inhibition [7]?
Answer: The inhibition was “Active”.

Question: And the inhibition [8]?
Answer: Its inhibition is 80%.

Question: What about the IC50 [9] of the same compound?
Answer: The IC50 was 82.7 nM.

Question: And the inhibition [10]?
Answer: Its inhibition is 80%.

Question: And the IC50 [11]?
Answer: The IC50 was 29.4 nM.

Question: With NC(=O)C1Cc2nc(-c3ccc4c(c3)CCO4)n(-c3ccnc(N[C@@H]4CCCN(C(=O)C5CC5)C4)n3)c2C1 (stereo partly specified) as the compound, how does the IC50 [1] read?
Answer: The IC50 was 8.92 nM.

Question: Which IC50 [1] does the source give for CCOC(=O)C1Cc2nc(-c3ccc4c(c3)CCO4)n(-c3ccnc(N[C@@H]4CCCN(C(=O)C5CC5)C4)n3)c2C1 (stereo partly specified) here?
Answer: Its IC50 is 10.4 nM.

Question: For NC(=O)C1Cc2nc(-c3ccc4c(c3)OCO4)n(-c3ccnc(N[C@H]4CCCN(C(=O)C5CC5)C4)n3)c2C1 (stereo partly specified), which IC50 [1] is on record?
Answer: The IC50 was 10 nM.

Question: And the viability at 10 µM (Cortical neurone)?
Answer: Its viability at 10 µM is 55.1%.

Question: With CCOC(=O)C1Cc2nc(-c3ccc4c(c3)OCO4)n(-c3ccnc(N[C@H]4CCN(C(=O)C5CC5)C4)n3)c2C1 (stereo partly specified) as the compound, how does the IC50 [1] read?
Answer: Its IC50 is 243 nM.

Question: For CNC(=O)C1Cc2nc(-c3ccc(F)c(C(F)(F)F)c3)n(-c3ccnc(N[C@H]4CCCN(C(=O)C5CC5)C4)n3)c2C1 (stereo partly specified), which IC50 [1] is on record?
Answer: The IC50 was 30.6 nM.

Question: For CCOC(=O)C1Cc2nc(-c3ccc4c(c3)CCO4)n(-c3ccnc(N[C@@H]4CCN(C(=O)C5CC5)C4)n3)c2C1 (stereo partly specified), which IC50 [1] is on record?
Answer: The IC50 was 21.5 nM.

Question: For NC(=O)C1Cc2nc(-c3ccc(F)c(C(F)(F)F)c3)n(-c3ccnc(N[C@@H]4CCN(C(=O)C5CC5)C4)n3)c2C1 (stereo partly specified), which IC50 [1] is on record?
Answer: The IC50 was 300 nM.

Question: Which IC50 [1] does the source give for CCOC(=O)C1Cc2nc(-c3ccc4ccccc4c3)n(-c3ccnc(N[C@@H]4CCN(C(=O)C5CC5)C4)n3)c2C1 (stereo partly specified) here?
Answer: Its IC50 is 6.82 nM.

Question: Which IC50 [1] does the source give for NC(=O)C1Cc2nc(-c3ccc4c(c3)OCO4)n(-c3ccnc(N[C@@H]4CCCN(C(=O)C5CC5)C4)n3)c2C1 (stereo partly specified) here?
Answer: The IC50 was 36.1 nM.

Question: Which IC50 [1] does the source give for CNC(=O)C1Cc2nc(-c3ccc(F)c(C(F)(F)F)c3)n(-c3ccnc(N[C@@H]4CCCN(C(=O)C5CC5)C4)n3)c2C1 (stereo partly specified) here?
Answer: The IC50 was 700 nM.

Question: For CNC(=O)C1Cc2nc(-c3ccc4ccccc4c3)n(-c3ccnc(N[C@H]4CCCN(C(=O)C5CC5)C4)n3)c2C1 (stereo partly specified), which IC50 [1] is on record?
Answer: Its IC50 is 0.564 nM.

Question: What about the Ratio IC50 [12] of the same compound?
Answer: Its Ratio IC50 is greater than 100.

Question: And the inhibition [2]?
Answer: The inhibition was 80%.

Question: What about the IC50 [3] of the same compound?
Answer: The IC50 was 1800 nM.

Question: What about the inhibition [4] of the same compound?
Answer: Its inhibition is 100%.

Question: What about the Ratio IC50 [13] of the same compound?
Answer: The Ratio IC50 was greater than 100.

Question: What about the IC50 [5] of the same compound?
Answer: Its IC50 is 751 nM.

Question: What about the inhibition [8] of the same compound?
Answer: The inhibition was 80%.

Question: What about the Ratio IC50 [14] of the same compound?
Answer: Its Ratio IC50 is greater than 100.

Question: And the IC50 [9]?
Answer: The IC50 was 14.4 nM.

Question: What about the inhibition [10] of the same compound?
Answer: The inhibition was 80%.

Question: And the IC50 [11]?
Answer: Its IC50 is 7.56 nM.

Question: With CNC(=O)C1Cc2nc(-c3ccc4c(c3)OCO4)n(-c3ccnc(N[C@H]4CCN(C(=O)C5CC5)C4)n3)c2C1 (stereo partly specified) as the compound, how does the IC50 [1] read?
Answer: The IC50 was 180 nM.

Question: Which IC50 [1] does the source give for CNC(=O)C1Cc2nc(-c3ccc(F)c(C(F)(F)F)c3)n(-c3ccnc(N[C@H]4CCN(C(=O)C5CC5)C4)n3)c2C1 (stereo partly specified) here?
Answer: Its IC50 is 601 nM.

Question: For CCOC(=O)C1Cc2nc(-c3ccc(F)c(C(F)(F)F)c3)n(-c3ccnc(N[C@@H]4CCN(C(=O)C5CC5)C4)n3)c2C1 (stereo partly specified), which IC50 [1] is on record?
Answer: Its IC50 is 63.1 nM.

Question: Which IC50 [1] does the source give for NC(=O)C1Cc2nc(-c3ccc4ccccc4c3)n(-c3ccnc(N[C@H]4CCN(C(=O)C5CC5)C4)n3)c2C1 (stereo partly specified) here?
Answer: The IC50 was 14.8 nM.

Question: For CCOC(=O)C1Cc2nc(-c3ccc4c(c3)CCO4)n(-c3ccnc(N[C@H]4CCCN(C(=O)C5CC5)C4)n3)c2C1 (stereo partly specified), which IC50 [1] is on record?
Answer: The IC50 was 31.4 nM.

Question: With CNC(=O)C1Cc2nc(-c3ccc(Cl)c(Cl)c3)n(-c3ccnc(N[C@@H]4CCN(C(=O)C5CC5)C4)n3)c2C1 (stereo partly specified) as the compound, how does the IC50 [1] read?
Answer: The IC50 was 9.36 nM.

Question: For CCOC(=O)C1Cc2nc(-c3ccc(Cl)c(Cl)c3)n(-c3ccnc(N[C@H]4CCN(C(=O)C5CC5)C4)n3)c2C1 (stereo partly specified), which IC50 [1] is on record?
Answer: The IC50 was 28.2 nM.

Question: Which IC50 [1] does the source give for NC(=O)C1Cc2nc(-c3ccc4ccccc4c3)n(-c3ccnc(N[C@H]4CCCN(C(=O)C5CC5)C4)n3)c2C1 (stereo partly specified) here?
Answer: The IC50 was 1.76 nM.

Question: And the viability at 10 µM (Cortical neurone)?
Answer: The viability at 10 µM was 58.5%.

Question: And the inhibition [6]?
Answer: The inhibition was “Active”.

Question: And the inhibition [7]?
Answer: Its inhibition is “Active”.

Question: With NC(=O)C1Cc2nc(-c3ccc(Cl)c(Cl)c3)n(-c3ccnc(N[C@H]4CCN(C(=O)C5CC5)C4)n3)c2C1 (stereo partly specified) as the compound, how does the IC50 [1] read?
Answer: Its IC50 is 15.4 nM.

Question: For CCOC(=O)C1Cc2nc(-c3ccc4ccccc4c3)n(-c3ccnc(N[C@@H]4CCCN(C(=O)C5CC5)C4)n3)c2C1 (stereo partly specified), which IC50 [1] is on record?
Answer: Its IC50 is 0.779 nM.

Question: What about the IC50 [3] of the same compound?
Answer: The IC50 was 1250 nM.

Question: What about the IC50 [5] of the same compound?
Answer: Its IC50 is 84.7 nM.

Question: And the IC50 [9]?
Answer: The IC50 was 56.1 nM.

Question: What about the IC50 [11] of the same compound?
Answer: The IC50 was 11.9 nM.

Question: With CNC(=O)C1Cc2nc(-c3ccc4ccccc4c3)n(-c3ccnc(N[C@@H]4CCCN(C(=O)C5CC5)C4)n3)c2C1 (stereo partly specified) as the compound, how does the IC50 [1] read?
Answer: The IC50 was 1.08 nM.

Question: What about the IC50 [3] of the same compound?
Answer: Its IC50 is 1660 nM.

Question: What about the Ratio IC50 [13] of the same compound?
Answer: Its Ratio IC50 is 50.

Question: And the IC50 [5]?
Answer: Its IC50 is 37.5 nM.

Question: What about the IC50 [9] of the same compound?
Answer: The IC50 was 75.5 nM.

Question: And the IC50 [11]?
Answer: Its IC50 is 16.3 nM.
